# Source: PubChem BioAssay (NCI)
#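 Tested at 5 concentrations; 48 h exposure; 96-well plates; endpoints linearly interpolated, else capped at highest concentration. TGI: concentration producing complete growth inhibition.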
# Assays:
# Assay in all cases: NCI tumour cell line growth inhibition, 48 h
# A549 NSCLC = system: A549 NSCLC
# BT-549 breast = system: BT-549 breast
# HCT-116 colon = system: HCT-116 colon
# HOP-92 NSCLC = system: HOP-92 NSCLC
# HS 578T breast = system: HS 578T breast
# IGROV1 ovarian = system: IGROV1 ovarian
# KM12 colon = system: KM12 colon
# M14 melanoma = system: M14 melanoma
# MCF7 breast = system: MCF7 breast
# MDA-N = system: MDA-N
# MOLT-4 leukemia = system: MOLT-4 leukemia
# NCI-H23 lung = system: NCI-H23 lung
# OVCAR-4 ovarian = system: OVCAR-4 ovarian
# RXF 393 renal = system: RXF 393 renal
# SK-MEL-28 melanoma = system: SK-MEL-28 melanoma
# TK-10 renal = system: TK-10 renal
# UACC-257 melanoma = system: UACC-257 melanoma
# UACC-62 melanoma = system: UACC-62 melanoma
# A498 renal = system: A498 renal
# NCI-H460 lung = system: NCI-H460 lung
SMILES,TGI (A549 NSCLC) [µM],TGI (BT-549 breast) [µM],TGI (HCT-116 colon) [µM],TGI (HOP-92 NSCLC) [µM],TGI (HS 578T breast) [µM],TGI (IGROV1 ovarian) [µM],TGI (KM12 colon) [µM],TGI (M14 melanoma) [µM],TGI (MCF7 breast) [µM],TGI (MDA-N) [µM],TGI (MOLT-4 leukemia) [µM],TGI (NCI-H23 lung) [µM],TGI (OVCAR-4 ovarian) [µM],TGI (RXF 393 renal) [µM],TGI (SK-MEL-28 melanoma) [µM],TGI (TK-10 renal) [µM],TGI (UACC-257 melanoma) [µM],TGI (UACC-62 melanoma) [µM],TGI (A498 renal) [µM],TGI (NCI-H460 lung) [µM]
COc1ccc(/C=C2\N=C(N3CCCCC3)NC2=O)cc1,> 100,> 100,> 100,> 100,> 100,> 100,> 100,> 100,> 100,> 100,> 100,> 100,> 100,> 100,> 100,> 100,> 100,> 100,,
ONC1=Nc2cc(Cl)ccc2C(=S)N2CSCC12 (stereo unspecified),> 100,> 100,> 100,,> 100,> 100,> 100,> 100,> 100,> 100,> 100,,> 100,> 100,> 100,> 100,> 100,> 100,> 100,> 100
C=C(CCOC)CCC1CCCCC(CN(C)C)C1=O (stereo unspecified),> 100,> 100,> 100,,> 100,> 100,> 100,> 100,> 100,> 100,> 100,> 100,> 100,> 100,> 100,,,> 100,> 100,> 100
COC(=O)c1csc([C@@H](OC(=O)[C@H](C)[C@H](CCCC(C)(Cl)Cl)OC(=O)c2csc([C@H](O)CO)n2)C(C)C)n1,32.1,31,,23,6.65,24.1,29.4,31.6,35,21.3,32.2,30.9,24.5,4.53,24.2,24.9,23.1,24.3,32.7,23.2
COc1ccc2c(c1)CN1C(=N2)CSC1c1cccc(Br)c1 (stereo unspecified),> 100,> 100,> 100,> 100,> 100,> 100,> 100,> 100,> 100,> 100,63.2,83.5,> 100,55.9,> 100,> 100,> 100,53.1,,> 100
C=C(C)C1CCC(C(=O)O)CC1 (stereo unspecified),> 100,> 100,> 100,> 100,> 100,> 100,> 100,> 100,> 100,> 100,> 100,> 100,,> 100,> 100,> 100,> 100,> 100,> 100,> 100
COC(=O)C1Cc2cc3c(cc2C1=O)CCC3 (stereo unspecified),> 100,> 100,> 100,,> 100,> 100,> 100,> 100,> 100,> 100,> 100,> 100,> 100,,> 100,> 100,> 100,> 100,> 100,> 100
C=CCn1c(N)c(C#N)c(C#N)c1CCC,> 100,> 100,,> 100,> 100,> 100,> 100,> 100,> 100,> 100,> 100,> 100,> 100,> 100,,> 100,> 100,> 100,> 100,
C[C@@H](C(=O)O)N1C(c2ccco2)=C(/C(C=O)=C\c2ccco2)C(=O)/C1=C\c1ccco1,> 100,> 100,> 100,> 100,> 100,> 100,> 100,> 100,> 100,> 100,> 100,> 100,> 100,> 100,> 100,> 100,> 100,> 100,> 100,
O=C(O)CO[C@@]12C#C/C=C\C#C[C@@H]3N(C(=O)Oc4ccccc4)c4ccccc4[C@]14O[C@@]34CCC2,> 100,69.9,> 100,> 100,69.4,> 100,60.3,> 100,46.7,34.5,> 100,> 100,> 100,,> 100,> 100,> 100,26.5,> 100,> 100
Cc1ccc(C2(O)CSC(=NC34CC5CC(CC(C5)C3)C4)N2C(P(=O)(O)O)P(=O)(O)O)cc1 (stereo unspecified),> 100,> 100,67.5,> 100,> 100,> 100,> 100,> 100,> 100,> 100,> 100,> 100,> 100,,> 100,> 100,,,> 100,> 100
S=C(N/N=C/c1ccccn1)N1CCCCC1,> 100,32.5,10.9,> 100,45.1,,> 100,1.36,50,> 100,,> 45.7,> 24.1,3.94,> 100,> 100,0.188,0.575,,0.457
CCOC(=O)CCC(NC(=O)c1ccc(Nc2nc3ccc(C(F)(F)F)cc3nc2-c2ccccc2)cc1)C(=O)OCC (stereo unspecified),> 100,> 100,> 100,> 100,85.1,> 100,> 100,46.2,> 100,75.4,77.8,> 100,> 100,> 100,> 100,> 100,35.3,44.2,,> 100
